Experimental data as given in patent US4576952A, “Pyrazolopyridine derivatives and their use as anti-inflammatory and/or anti-allergic agents” (Beecham Group p.l.c., priority 1984, dated 1986).

Key:
[1] = test system: cantharidin mouse ear; test: Mouse Cantharidin Screen (topical anti-inflammatory activity, mouse ear); type: in vivo; conditions: Mouse Cantharidin Data (24 h)
Experimental: Compounds were tested for topical anti-inflammatory activity in a cantharidin mouse ear screen, modified from Swingle et al [Swingle, K. F., Reiter, M. J. and Schwartzmiller, D. H., Arch. Int. Pharmacodyn., (1981), 254, 168-176].
25 μg cantharidin (in 10 μl THF/MeOH) was applied to both ears. Compound, in the same solvent, was applied at the same time, to the left ear only. Ears were weighed 24 h after cantharidin application. Percentage inhibition of the acute inflammatory swelling refers to the increase in weight of left ears (cantharidin plus compound) compared with solvent-treated negative controls, as a proportion of the increase in weight of right ears (cantharidin alone) over similar controls.

[2] = test system: 5-Lipoxygenase; test: RBL-1 5-Lipoxygenase Screen; type: biochemical; conditions: 20 μM; 10,000 g supernatant from RBL-1 cells, 29° C.
Experimental: 5-Lipoxygenase enzyme was prepared as a 10,000 g supernatant from RBL-1 cells by the method of Jakschik [Jakschik, B. A., Sun, F. F., Lee, L. M. and Steinhoff, M. M., 1980, Biochem. Biophys. Res. Comm. 95, 103]. The 10,000 g supernatant was diluted with homogenization buffer to the equivalent of 1.5-2.5×10^7 cells ml^-1 and made 2 mM with respect to CaCl2. Aliquots of 0.5 ml were then dispensed into tubes, and incubated at 29° C. with 5 γl ethanol or compound in ethanol at the desired concentration for 2 min. Then [1-^14 C] arachidonic acid was added in buffer to give a final concentration of 6.3 μm and 0.2 μCi per incubation, and the reaction continued at 29° C. for 2 min. The reaction was terminated by adding 1 ml of acetone and cooling on ice, 0.5 ml of ice-cold saline and 10 μl of 2N formic acid were added, and the mixture was extracted with 2×2 ml of chloroform. The extract was stored under N2 at -20° C. until analysis by chromatography. Activity was measured as the percentage of total radioactivity found in 5-HETE and 5,12-diHETE, and inhibition calculated as the decrease in formation of the sum of these two species in compound-treated incubates relative to control incubates.

[3] = test system: mouse sensitised to oxazolone; test: Mouse Oxazolone Screen (topical anti-inflammatory activity); type: in vivo; conditions: ear, compound 1 h before oxazolone challenge, ear weights 24 h later, r^2 =0.96
Experimental: Compounds were tested for topical anti-inflammatory activity in a screen using the mouse sensitised to oxazolone, by a method modified from that of Dietrich and Hess [Dietrich, F. M., and Hess, R., Int. Arch. Allergy, (1970), 38, 246-259].
Mice were sensitised with oxazolone (2 mg in 20 μl ethanol) on a shaved area of the abdomen. Five days later, the animals received 10 μl THF/MeOH (1:1 v/v) on the right ear, and the test compound in the same solvent on the left ear. One hour later, the animals were challenged with 100 μg oxazolone in 10 μl acetone on each ear. Ear weights were measured 24 h later. Percentage inhibition of the inflammatory swelling refers to the increase in weight of left ears (oxazolone plus compound) compared with solvent-treated negative controls, as a proportion of the increase in weight of right ears (oxazolone alone) over similar controls.

[4] = test system: mice; conditions: in mice; J. Heterocycl. Chem. 1971, 8(6), 1035-7; cited from earlier work

Cc1cc(Nc2ccc(O)cc2)c2[nH]ncc2n1 [Example 4, 7-(4-Hydroxyanilino)-5-methyl-1H-pyrazolo[4,3-b]pyridine]
% Inhibition ([1]; 200 μg/ear): 71%
inhibition (decrease in formation of 5-HETE and 5,12-diHETE) [2]: 66%
ED50 [3]: 240 μg/ear

Cc1cc(Nc2cccc(O)c2)c2[nH]ncc2n1 [Example 5, 7-(3-Hydroxyanilino)-5-methyl-1H-pyrazolo[4.3-b]pyridine]
% Inhibition ([1]; 500 μg/ear): 49%

Cc1cc(Nc2ccc(C#N)cc2)c2[nH]ncc2n1 [Example 1, 7-(4-Cyanoanilino)-5-methyl-1H-pyrazolo[4,3-b]pyridine]
% Inhibition ([1]; 300 μg/ear): 29%

CC(=O)N(C(C)=O)c1cc(C)nc2c(C)n[nH]c12 [compound wherein R is NAc2]
CNS antidepressant activity [4]: CNS antidepressant activity

Cc1cc(Nc2cccc(O)c2)c2c(cnn2C)n1 [Example 8, 1,5-Dimethyl-7-(3-hydroxyanilino)-1H-pyrazolo[4,3-b]pyridine]
% Inhibition ([1]; 278 μg/ear): 31%
